Source: ChEMBL document CHEMBL1146891, “Preparation of 1-(3-aminobenzo[d]isoxazol-5-yl)-1H-pyrazolo[4,3-d]pyrimidin-7(6H)-ones as potent, selective, and efficacious inhibitors of coagulation factor Xa” (Bioorg Med Chem Lett, 2006)
Structures can show the parent of a compound that is named as a salt. Blank lines part the entries; values can stand above or below the molecule they belong to.

Experiments:
Coagulation factor X [1] = molecular target: T1, Coagulation factor X (Homo sapiens, UniProt P00742); experiment: Binding affinity to human f10a
Coagulation factor X [2] = molecular target: T1, Coagulation factor X; experiment: Anticoagulant activity in human plasma measured as activated partial thromboplastin time; type: functional, cell-free
[3] = molecular target: T2, Coagulation factor VII/tissue factor (Homo sapiens) (UniProt P08709+P13726); experiment: Anticoagulant activity in human plasma measured as prothrombin time; type: functional, cell-free
[4] = Half life in dog at 0.5 mg/kg, iv and 0.2 mg/kg, po; type: ADME, organism-based, Canis lupus familiaris; conditions: in vivo
[5] = Apparent permeability in Caco-2 cells; type: ADME, cell-based; conditions: human
[6] = Bioavailability in dog at 0.5 mg/kg, iv and 0.2 mg/kg, po; type: ADME, organism-based, Canis lupus familiaris; conditions: in vivo
[7] = Volume of distribution in dog at 0.5 mg/kg, iv and 0.2 mg/kg, po; type: ADME, organism-based, Canis lupus familiaris; conditions: in vivo, read-out: Vdss
[8] = Clearance in dog at 0.5 mg/kg, iv and 0.2 mg/kg, po; type: ADME, organism-based, Canis lupus familiaris; conditions: in vivo
[9] = molecular target: Coagulation factor VII and X (Homo sapiens) (UniProt P00742+P08709); experiment: Selectivity for f10a over f7a; type: protein assay
Homo sapiens [10] = organism: Homo sapiens; experiment: Selectivity for f10a over urokinase
Homo sapiens [11] = organism: Homo sapiens; experiment: Selectivity for f10a over chymotrypsin
[12] = molecular target: Coagulation factor X and plasma kallikrein (Homo sapiens) (UniProt P03952+P00742); experiment: Selectivity for f10a over plasma kallikrein; type: cell-free
Homo sapiens [13] = organism: Homo sapiens; experiment: Selectivity for f10a over tPA
[14] = molecular target: T2, Coagulation factor VII/tissue factor (Homo sapiens); experiment: Anticoagulant activity in rabbit plasma measured as prothrombin time; type: functional, cell-free; conditions: Oryctolagus cuniculus, target entry is the homologue from another species
Homo sapiens [15] = organism: Homo sapiens; experiment: Selectivity for f10a over plasmin
[16] = molecular target: Thrombin and coagulation factor X (Homo sapiens) (UniProt P00734+P00742); experiment: Selectivity for f10a over thrombin; type: protein assay
Homo sapiens [17] = organism: Homo sapiens; experiment: Selectivity for f10a over activated protein C
Homo sapiens [18] = organism: Homo sapiens; experiment: Selectivity for f10a over trypsin
[19] = Protein binding in rabbit plasma; type: ADME, organism-based, Oryctolagus cuniculus; conditions: read-out: PPB (converted)
[20] = molecular target: Vitamin K-dependent protein C (Homo sapiens, UniProt P04070); experiment: Binding affinity to human activated protein C
Coagulation factor IX = Coagulation factor IX (Homo sapiens, UniProt P00740); experiment: Binding affinity to human f9a
[21] = molecular target: Urokinase-type plasminogen activator (Homo sapiens, UniProt P00749); experiment: Binding affinity to human urokinase
Chymotrypsinogen B = Chymotrypsinogen B (Homo sapiens, UniProt P17538); experiment: Binding affinity to human chymotrypsin
Plasminogen = Plasminogen (Homo sapiens, UniProt P00747); experiment: Binding affinity to human plasmin
Trypsin = Trypsin (Homo sapiens, UniProt P07477+P07478+P35030); experiment: Binding affinity to human trypsin; type: protein assay
Prothrombin = Prothrombin (Homo sapiens, UniProt P00734); experiment: Binding affinity to human thrombin
[22] = molecular target: Tissue-type plasminogen activator (Homo sapiens, UniProt P00750); experiment: Binding affinity to human tPA
Sequence of Tissue-type plasminogen activator (P00750 whole entry): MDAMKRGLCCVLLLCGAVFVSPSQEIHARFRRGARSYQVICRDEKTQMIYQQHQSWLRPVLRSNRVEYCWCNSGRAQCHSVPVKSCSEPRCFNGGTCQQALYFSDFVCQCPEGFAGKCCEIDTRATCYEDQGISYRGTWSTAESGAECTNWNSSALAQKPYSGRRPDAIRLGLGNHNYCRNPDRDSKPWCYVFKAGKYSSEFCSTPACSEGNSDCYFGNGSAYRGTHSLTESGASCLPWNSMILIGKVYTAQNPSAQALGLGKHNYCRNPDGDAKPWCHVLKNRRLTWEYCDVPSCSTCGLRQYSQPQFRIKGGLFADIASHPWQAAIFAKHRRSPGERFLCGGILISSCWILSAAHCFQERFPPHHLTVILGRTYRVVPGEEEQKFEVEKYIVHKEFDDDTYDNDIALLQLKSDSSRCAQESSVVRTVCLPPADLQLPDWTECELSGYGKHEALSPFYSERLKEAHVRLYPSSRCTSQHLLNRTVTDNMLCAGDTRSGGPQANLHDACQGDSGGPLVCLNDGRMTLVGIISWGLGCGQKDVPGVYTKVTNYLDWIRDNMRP

T1 sequence (P00742 41-179 limits assumed): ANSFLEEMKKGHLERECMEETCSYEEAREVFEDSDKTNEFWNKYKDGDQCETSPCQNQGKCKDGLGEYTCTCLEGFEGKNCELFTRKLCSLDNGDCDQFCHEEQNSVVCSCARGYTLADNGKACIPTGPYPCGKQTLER
T1 sequence (P00742 235-488 limits assumed): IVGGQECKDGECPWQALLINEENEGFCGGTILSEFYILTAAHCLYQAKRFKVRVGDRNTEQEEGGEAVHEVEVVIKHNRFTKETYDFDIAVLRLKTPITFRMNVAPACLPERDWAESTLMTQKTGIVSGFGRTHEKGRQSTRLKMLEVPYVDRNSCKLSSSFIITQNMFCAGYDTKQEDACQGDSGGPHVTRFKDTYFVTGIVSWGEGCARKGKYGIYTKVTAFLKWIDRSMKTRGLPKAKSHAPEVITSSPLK
Sequence of Thrombin and coagulation factor X (Homo sapiens) (P00742 whole entry, looked up, other chains not shown): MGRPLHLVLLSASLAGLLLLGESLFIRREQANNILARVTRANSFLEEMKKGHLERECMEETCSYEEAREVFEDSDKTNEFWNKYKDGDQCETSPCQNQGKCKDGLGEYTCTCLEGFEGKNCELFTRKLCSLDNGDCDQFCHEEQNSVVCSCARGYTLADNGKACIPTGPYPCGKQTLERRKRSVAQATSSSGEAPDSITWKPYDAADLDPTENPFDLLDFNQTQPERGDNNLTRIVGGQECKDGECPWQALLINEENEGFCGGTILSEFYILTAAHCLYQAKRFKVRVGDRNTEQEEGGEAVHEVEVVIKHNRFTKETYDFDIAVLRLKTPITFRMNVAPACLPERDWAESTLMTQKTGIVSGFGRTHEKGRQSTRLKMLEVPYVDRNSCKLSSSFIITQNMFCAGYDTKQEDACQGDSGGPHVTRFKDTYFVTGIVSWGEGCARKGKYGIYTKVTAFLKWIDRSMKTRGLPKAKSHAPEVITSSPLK
Sequence of Coagulation factor X and plasma kallikrein (Homo sapiens) (P00742 whole entry, looked up): as the sequence (P00742 whole entry, looked up, other chains not shown) above
Sequence of Coagulation factor X and plasma kallikrein (Homo sapiens) (P03952 whole entry, looked up): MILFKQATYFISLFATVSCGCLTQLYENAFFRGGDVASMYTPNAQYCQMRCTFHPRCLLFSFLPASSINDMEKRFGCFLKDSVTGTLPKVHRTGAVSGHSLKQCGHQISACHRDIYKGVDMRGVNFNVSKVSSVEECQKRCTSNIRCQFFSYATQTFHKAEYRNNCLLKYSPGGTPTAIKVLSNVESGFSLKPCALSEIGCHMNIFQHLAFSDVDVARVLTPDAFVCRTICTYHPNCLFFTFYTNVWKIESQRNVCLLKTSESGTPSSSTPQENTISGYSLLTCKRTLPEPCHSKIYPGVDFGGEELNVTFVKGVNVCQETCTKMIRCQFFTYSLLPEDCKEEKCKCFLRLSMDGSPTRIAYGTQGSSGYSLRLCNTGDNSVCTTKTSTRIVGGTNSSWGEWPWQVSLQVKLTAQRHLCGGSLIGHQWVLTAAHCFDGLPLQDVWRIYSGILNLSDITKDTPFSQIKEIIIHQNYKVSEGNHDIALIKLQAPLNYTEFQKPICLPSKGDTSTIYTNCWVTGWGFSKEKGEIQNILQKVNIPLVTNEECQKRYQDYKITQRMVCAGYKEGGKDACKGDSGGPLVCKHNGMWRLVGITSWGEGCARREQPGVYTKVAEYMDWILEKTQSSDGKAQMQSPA
Sequence of Coagulation factor IX (P00740 47-191 limits assumed): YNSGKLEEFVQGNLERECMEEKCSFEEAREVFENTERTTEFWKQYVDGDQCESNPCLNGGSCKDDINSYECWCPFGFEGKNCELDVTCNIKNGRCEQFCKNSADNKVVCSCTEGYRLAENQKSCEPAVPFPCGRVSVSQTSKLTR
Sequence of Coagulation factor IX (P00740 227-461 limits assumed): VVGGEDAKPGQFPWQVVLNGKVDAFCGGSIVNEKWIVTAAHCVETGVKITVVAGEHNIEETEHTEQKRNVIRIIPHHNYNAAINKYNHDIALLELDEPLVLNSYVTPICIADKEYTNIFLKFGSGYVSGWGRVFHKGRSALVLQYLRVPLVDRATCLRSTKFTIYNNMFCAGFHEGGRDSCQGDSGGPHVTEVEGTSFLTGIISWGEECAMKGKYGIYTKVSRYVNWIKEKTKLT
Sequence of Vitamin K-dependent protein C (P04070 43-197 limits assumed): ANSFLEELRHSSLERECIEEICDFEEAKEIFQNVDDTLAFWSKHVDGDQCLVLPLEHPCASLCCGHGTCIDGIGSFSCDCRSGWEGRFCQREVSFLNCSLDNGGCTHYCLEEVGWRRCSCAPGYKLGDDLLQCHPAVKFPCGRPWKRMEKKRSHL
Sequence of Vitamin K-dependent protein C (P04070 212-461 limits assumed): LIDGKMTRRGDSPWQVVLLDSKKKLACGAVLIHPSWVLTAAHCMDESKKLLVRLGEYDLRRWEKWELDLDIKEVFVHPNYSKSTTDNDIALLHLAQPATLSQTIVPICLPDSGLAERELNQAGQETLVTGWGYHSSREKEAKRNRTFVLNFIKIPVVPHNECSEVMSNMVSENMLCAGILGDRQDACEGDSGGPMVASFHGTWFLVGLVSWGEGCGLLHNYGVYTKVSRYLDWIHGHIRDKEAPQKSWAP
Sequence of Plasminogen (P00747 97-580 limits assumed): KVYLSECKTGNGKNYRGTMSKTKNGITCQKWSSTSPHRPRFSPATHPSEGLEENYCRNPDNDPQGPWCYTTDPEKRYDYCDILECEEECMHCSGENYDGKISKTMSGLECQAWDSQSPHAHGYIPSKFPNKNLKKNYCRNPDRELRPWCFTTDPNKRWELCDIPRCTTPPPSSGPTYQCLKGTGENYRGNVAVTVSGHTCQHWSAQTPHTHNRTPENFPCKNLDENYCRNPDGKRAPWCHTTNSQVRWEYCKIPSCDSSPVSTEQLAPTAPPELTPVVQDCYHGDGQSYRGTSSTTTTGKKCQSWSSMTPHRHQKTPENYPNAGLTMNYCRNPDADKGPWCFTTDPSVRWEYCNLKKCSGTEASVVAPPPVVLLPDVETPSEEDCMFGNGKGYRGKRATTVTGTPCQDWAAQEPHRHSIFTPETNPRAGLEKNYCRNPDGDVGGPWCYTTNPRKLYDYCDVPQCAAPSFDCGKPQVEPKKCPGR
Sequence of Plasminogen (P00747 581-810 limits assumed): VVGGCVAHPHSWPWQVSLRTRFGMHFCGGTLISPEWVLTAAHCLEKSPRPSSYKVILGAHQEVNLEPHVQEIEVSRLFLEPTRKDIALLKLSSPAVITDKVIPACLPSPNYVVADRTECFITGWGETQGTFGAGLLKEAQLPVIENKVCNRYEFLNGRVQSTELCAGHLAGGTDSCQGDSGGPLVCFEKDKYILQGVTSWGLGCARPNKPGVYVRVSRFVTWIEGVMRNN
Sequence of Chymotrypsinogen B (P17538 34-164 limits assumed, other chains not shown): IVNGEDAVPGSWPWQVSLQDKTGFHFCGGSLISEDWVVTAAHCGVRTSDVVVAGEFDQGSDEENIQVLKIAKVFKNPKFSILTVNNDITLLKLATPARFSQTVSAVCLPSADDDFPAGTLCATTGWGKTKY
Sequence of Chymotrypsinogen B (P17538 167-263 limits assumed, other chains not shown): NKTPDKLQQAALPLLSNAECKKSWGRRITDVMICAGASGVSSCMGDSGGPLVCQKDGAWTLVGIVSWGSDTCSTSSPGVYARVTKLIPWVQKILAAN

SMILES: Cc1nn(-c2ccc3onc(N)c3c2)c2c(=O)n(-c3ccc(-c4ccccc4CN4CCCC4)cc3)cnc12
Ki (Coagulation factor X [1]): 1.3 nM | 2aPTT (Coagulation factor X [2]): 1.6 µM | 2PT [3]: 1.1 µM

SMILES: CCOC(=O)c1nn(-c2ccc3onc(N)c3c2)c2c(=O)n(-c3ccc(-c4ccccc4CN4CCCC4)cc3)cnc12
Ki (Coagulation factor X [1]): 1.6 nM | 2aPTT (Coagulation factor X [2]): 1.6 µM | 2PT [3]: 2.3 µM

SMILES: CN(C)Cc1ccccc1-c1ccc(-c2cnc3c(C(F)(F)F)nn(-c4ccc5onc(N)c5c4)c3c2O)cc1
Ki (Coagulation factor X [1]): 3.2 nM

SMILES: CN(C)Cc1ccccc1-c1ccc(-c2nnc3c(C(F)(F)F)nn(-c4ccc5onc(N)c5c4)c3c2O)cc1
Ki (Coagulation factor X [1]): 5.5 nM

SMILES: Cc1nn(-c2ccc3onc(N)c3c2)c2c(=O)n(-c3ccc(-c4ccccc4CN(C)C)cc3)cnc12.O=C(O)C(F)(F)F
half-life [4]: 2.5 h | Papp [5]: 11 ×10⁻⁶ cm/s | bioavailability [6]: 2% | Vd [7]: 9.5 L/kg | clearance [8]: 55 mL/min/kg

SMILES: CN(C)Cc1nccn1-c1ccc(-n2c(=O)[nH]c3c(C(F)(F)F)nn(-c4ccc5onc(N)c5c4)c3c2=O)c(F)c1
Ki (Coagulation factor X [1]): 0.35 nM | 2aPTT (Coagulation factor X [2]): 37.8 µM | 2PT [3]: 14.9 µM

SMILES: Cc1nn(-c2ccc3onc(N)c3c2)c2c(=O)n(-c3ccc(-c4ccccc4CNCC4CC4)cc3)cnc12
Ki (Coagulation factor X [1]): 1.7 nM | 2aPTT (Coagulation factor X [2]): 8.1 µM | 2PT [3]: 3.1 µM

SMILES: Cc1nn(-c2ccc3onc(N)c3c2)c2c(=O)n(-c3ccc(-c4ccccc4CN(C)C(C)C)cc3)c(C)nc12
Ki (Coagulation factor X [1]): 0.35 nM | 2aPTT (Coagulation factor X [2]): 2 µM | 2PT [3]: 4 µM

SMILES: Cc1nn(-c2ccc3onc(N)c3c2)c2c(=O)n(-c3ccc(-c4ccccc4CNC(C)C)cc3)cnc12
Ki (Coagulation factor X [1]): 1.5 nM | 2aPTT (Coagulation factor X [2]): 3 µM | 2PT [3]: 1.9 µM

SMILES: Cc1nn(-c2ccc3onc(N)c3c2)c2c(=O)n(-c3ccc(-c4ccccc4CN(C)C)cc3)cnc12
2aPTT (Coagulation factor X [2]): 2.1 µM | 2PT [3]: 1.3 µM

SMILES: Cc1nn(-c2ccc3onc(N)c3c2)c2c(=O)n(-c3ccc(-c4ccccc4CN(C)C)cc3)c(C)nc12
2aPTT (Coagulation factor X [2]): 1.7 µM | Ratio Ki [9]: > 1000 | Ratio Ki (Homo sapiens [10]): > 1000 | Ratio Ki (Homo sapiens [11]): > 1000 | Ratio Ki [12]: > 1000 | Ratio Ki (Homo sapiens [13]): > 1000 | 2PT [3]: 1.4 µM | 2PT [14]: 1.8 µM | Ratio Ki (Homo sapiens [15]): > 1000 | Ratio Ki [16]: > 500 | Ratio Ki (Homo sapiens [17]): > 1000 | Ratio Ki (Homo sapiens [18]): > 1000

SMILES: Cc1nn(-c2ccc3onc(N)c3c2)c2c(=O)n(-c3ccc(-c4ccccc4CN(C)C)cc3)c(C)nc12.O=C(O)C(F)(F)F
half-life [4]: 4.2 h | Papp [5]: 6.1 ×10⁻⁶ cm/s | bioavailability [6]: 23% | Vd [7]: 8.9 L/kg | clearance [8]: 28.3 mL/min/kg

SMILES: CN(C)Cc1nccn1-c1ccc(NC(=O)c2cc(C(F)(F)F)nn2-c2ccc3onc(N)c3c2)c(F)c1 [RAZAXABAN HYDROCHLORIDE]
fraction unbound [19]: 0.07

SMILES: Cc1nc2c(C(F)(F)F)nn(-c3ccc4onc(N)c4c3)c2c(=O)n1-c1ccc(-c2ccccc2CN(C)C)cc1.O=C(O)C(F)(F)F
half-life [4]: 14 h | Papp [5]: 19 ×10⁻⁶ cm/s | bioavailability [6]: 63% | Vd [7]: 13 L/kg | clearance [8]: 11.7 mL/min/kg

Other lines, results leading:

2aPTT (Coagulation factor X [2]): 28 µM | 2PT [3]: 6.6 µM
SMILES: Cc1nc2c(C(F)(F)F)nn(-c3ccc4onc(N)c4c3)c2c(=O)n1-c1ccc(-c2ccccc2CN2CC[C@@H](O)C2)cc1 [listing 1 of 2 here]

Ki (Coagulation factor X [1]): 0.18 nM
SMILES: Cc1nc2c(C(F)(F)F)nn(-c3ccc4onc(N)c4c3)c2c(=O)n1-c1ccc(-c2ccccc2CN2CC[C@@H](O)C2)cc1 [listing 2 of 2 here]

half-life [4]: 8.4 h | bioavailability [6]: 58% | Vd [7]: 6.6 L/kg | clearance [8]: 10 mL/min/kg
SMILES: Cc1nc2c(C(F)(F)F)nn(-c3ccc4onc(N)c4c3)c2c(=O)n1-c1ccc(-c2ccccc2CN2CC[C@@H](O)C2)cc1.O=C(O)C(F)(F)F

Ki (Coagulation factor X [1]): 0.5 nM | 2aPTT (Coagulation factor X [2]): 4.3 µM | 2PT [3]: 2.1 µM
SMILES: Cc1nn(-c2ccc3onc(N)c3c2)c2c(=O)n(-c3ccc(-c4ccccc4CN4CC[C@H](O)C4)cc3)cnc12

2aPTT (Coagulation factor X [2]): 1.7 µM
SMILES: CN(C)Cc1ccccc1-c1ccc(N2CNc3c(C(F)(F)F)nn(-c4ccc5onc(N)c5c4)c3C2=O)cc1

Ki (Coagulation factor X [1]): 0.77 nM | 2aPTT (Coagulation factor X [2]): 638 µM | 2PT [3]: 230 µM
SMILES: Nc1nc2c(C(F)(F)F)nn(-c3ccc4onc(N)c4c3)c2c(O)c1-c1ccc(-c2ccccc2CN2CCC(O)CC2)cc1

Ki (Coagulation factor X [1]): 0.11 nM | 2aPTT (Coagulation factor X [2]): 74.5 µM | 2PT [3]: 24.1 µM
SMILES: Nc1noc2ccc(-n3nc(C(F)(F)F)c4[nH]c(=O)n(-c5ccc(-c6ccccc6CN6CC[C@@H](O)C6)cc5)c(=O)c43)cc12

Ki (Coagulation factor X [1]): 0.5 nM | 2aPTT (Coagulation factor X [2]): 18.6 µM | 2PT [3]: 10.9 µM
SMILES: Cc1nc2c(C(F)(F)F)nn(-c3ccc4onc(N)c4c3)c2c(=O)n1-c1ccc(-c2ccccc2CNCC2CC2)cc1

2aPTT (Coagulation factor X [2]): 5.8 µM | Ratio Ki [9]: > 1000 | Ratio Ki (Homo sapiens [10]): > 1000 | Ratio Ki (Homo sapiens [11]): > 1000 | Ratio Ki [12]: > 1000 | Ratio Ki (Homo sapiens [13]): > 1000 | 2PT [3]: 2.5 µM | 2PT [14]: 3.4 µM | Ratio Ki (Homo sapiens [15]): > 1000 | Ratio Ki [16]: > 500 | Ratio Ki (Homo sapiens [17]): > 1000 | Ratio Ki (Homo sapiens [18]): > 1000
SMILES: Cc1nn(-c2ccc3onc(N)c3c2)c2c(=O)n(-c3ccc(-c4ccccc4CN4CC[C@@H](O)C4)cc3)c(C)nc12

half-life [4]: 3.8 h | Papp [5]: 4.7 ×10⁻⁶ cm/s | bioavailability [6]: 48% | Vd [7]: 6.6 L/kg | clearance [8]: 20 mL/min/kg
SMILES: Cc1nn(-c2ccc3onc(N)c3c2)c2c(=O)n(-c3ccc(-c4ccccc4CN4CC[C@@H](O)C4)cc3)c(C)nc12.O=C(O)C(F)(F)F

Ki (Coagulation factor X [1]): 0.21 nM | Ki [20]: > 20000 nM | Ki (Coagulation factor IX): > 41000 nM | Ki [21]: > 13000 nM | Ki (Chymotrypsinogen B): 3240 nM | Ki (Plasminogen): > 15000 nM | Ki (Trypsin): > 4200 nM | Ki (Prothrombin): 130 nM | Ki [22]: > 33000 nM
SMILES: Nc1noc2ccc(-n3nc(C(F)(F)F)c4c3C(=O)N(c3ccc(-c5ccccc5CN5CC[C@@H](O)C5)cc3)CN4)cc12 [listing 1 of 2 here]

half-life [4]: 4.3 h | Papp [5]: 3.9 ×10⁻⁶ cm/s | bioavailability [6]: 27% | Vd [7]: 4.2 L/kg | clearance [8]: 16.3 mL/min/kg
SMILES: Nc1noc2ccc(-n3nc(C(F)(F)F)c4c3C(=O)N(c3ccc(-c5ccccc5CN5CC[C@@H](O)C5)cc3)CN4)cc12.O=C(O)C(F)(F)F

Ki (Coagulation factor X [1]): 0.22 nM | 2aPTT (Coagulation factor X [2]): 352 µM | 2PT [3]: 92.6 µM
SMILES: Nc1noc2ccc(-n3nc(C(F)(F)F)c4[nH]c(=O)n(-c5ccc(-c6ccccc6CN6CCC(O)CC6)cc5)c(=O)c43)cc12

2aPTT (Coagulation factor X [2]): 2.9 µM | Ratio Ki [9]: > 1000 | Ratio Ki (Homo sapiens [10]): > 1000 | Ratio Ki (Homo sapiens [11]): > 1000 | Ratio Ki [12]: > 1000 | Ratio Ki (Homo sapiens [13]): > 1000 | 2PT [3]: 1.6 µM | Ratio Ki (Homo sapiens [15]): > 1000 | Ratio Ki [16]: > 500 | Ratio Ki (Homo sapiens [17]): > 1000 | Ratio Ki (Homo sapiens [18]): > 1000
SMILES: Nc1noc2ccc(-n3nc(C(F)(F)F)c4c3C(=O)N(c3ccc(-c5ccccc5CN5CC[C@@H](O)C5)cc3)CN4)cc12 [listing 2 of 2 here]

2aPTT (Coagulation factor X [2]): 9.2 µM | 2PT [3]: 4.1 µM | 2PT [14]: 2.7 µM
SMILES: Cc1nc2c(C(F)(F)F)nn(-c3ccc4onc(N)c4c3)c2c(=O)n1-c1ccc(-c2ccccc2CN(C)C)cc1
